Experimental data published in patent US4525358A, “2-[4-(Diphenylmethyl)-1-piperazinyl]-acetic acids and their amides” (UCB Pharmaceuticals, Inc., priority 1981, dated 1985).
Read-outs that look alike come from different tables or passages of the source.

Key:
[1] = test system: passive cutaneous anaphylaxis; test: passive cutaneous anaphylaxis test (PCA), antiallergic activity; type: in vivo; details: rats; for ED50: Rattus norvegicus, po, read-out: ID 50 per os (reduction of 50% of the surface area of the colored spot); for ED50 / antiallergic activity (PCA), in words: per os
Experimental: This activity is determined in rats by means of the passive cutaneous anaphylaxis test (PCA) (see J. GOOSE and A. M. J. N. BlAIR, Immunology, 16, (1969), 749-760; and […] and D. ROEMER, Arzneimittel-Forschung, 28, (5), (1978), 770-782). Female rats are used, the sides of which have been partly shaved. Into the zone thus shaved there is injected intradermally, for passive sensitization of the animals, 0.05 ml of IGE antiovalbumin serum at a dilution such that, at the time of the PCA test, a distinct spot with a surface area of about 100 mm^2 appears at the point of injection. […] At the point of intradermal injection, there appears a distinct blue spot, the surface of which is measured. In order to test the activity of the compounds according to the present invention, the procedure is carried out in the same manner; however, the test compound is administered orally 72 hours after injection of the serum; 15 minutes after this administration, 0.25 ml of the solution of the allergen is injected intravenously; 30 minutes after the administration of the allergen, the surface of the blue spot is measured.

[2] = test system: bronchospasms induced by serotonin; test: inhibition of serotonin-induced bronchospasms (Konzett and Roessler), spasmolytic activity; type: in vivo, guinea pig; details: for ED50: Cavia porcellus, iv, read-out: ID 50, inhibition of bronchospasms induced by serotonin
Experimental: (§1) Anaesthetized and curarized guinea pigs are subjected to artificial ventilation. The endotracheal pressure is recorded. Repetitive bronchial spasms are induced by successive and progressive intravenous injections of serotonin and histamine, respectively. The test compounds are also administered intravenously.

[3] = test system: bronchospasms induced by histamine; test: inhibition of histamine-induced bronchospasms (Konzett and Roessler), antihistaminic activity; type: in vivo, guinea pig; details: for ED50: Cavia porcellus, iv, read-out: ID 50, inhibition of bronchospasms induced by histamine
Experimental: as §1

[4] = Belgian Patent Specification No. 763,609; cited from earlier work
[5] = test system: general behaviour of mice; test: general behaviour of mice (Irwin's test), tranquilization; type: in vivo
mice = details: intraperitoneal, two animals out of three
Description: In the following Table IV, the lethal doses in mg/kg (two animals out of three) are given for compounds of the invention when administered intraperitoneally in mice:

[6] = intravenous; cited from earlier work
[7] = J. med. Chem. 11 (1968), 390-391; cited from earlier work
[8] = guinea pig, intravenous, serotonin
[9] = guinea pig, intravenous, histamine

| SMILES | ED50 ([1]; 15 minutes before allergen) [µmol/kg] | ED50 [2, 8] [µmol/kg] | ED50 [3, 9] [µmol/kg] | Tranquilizing dose (first manifestations of tranquilization) ([5]; male mice, intraperitoneal) [mg/kg] | Lethal dose (2/3) (mice) [mg/kg] | also measured |
| --- | --- | --- | --- | --- | --- | --- |
| NC(=O)CN1CCN(C(c2ccccc2)c2ccccc2)CC1 [Compound 1, 2-[4-(diphenylmethyl)-1-piperazinyl]-acetamide, reference compound] | > 320 | 77 | 2.1 | – | – | antiallergic activity (PCA), in words [1]: of little interest; activity with regard to bronchospasms induced by serotonin (antispasmodic), in words [2, 8]: considerbly less active; activity with regard to bronchospasms induced by histamine (antihistaminic), in words [3, 9]: considerbly less active; diuretic activity [4]: possesses a diuretic activity |
| Cl.Cl.NC(=O)COCCN1CCN(C(c2ccccc2)c2ccccc2Cl)CC1 (centres unmarked) [D, 2-[2-[4-[(2-chlorophenyl)phenylmethyl]-1-piperazinyl]ethoxy]-acetamide dihydrochloride] | – | 1.1 | 0.63 | > 460 | 460 | – |
| Cl.Cl.NC(=O)COCCOCCN1CCN(C(c2ccccc2)c2ccc(Cl)cc2)CC1 (centres unmarked) [G, 2-[2-[2-[4-[(4-chlorophenyl)phenylmethyl]-1-piperazinyl]ethoxy]ethoxy]-acetamide dihydrochloride] | – | 0.66 | 1.14 | 34 | 339 | – |
| O=C(O)CN1CCN(C(c2ccccc2)c2ccc(Cl)cc2)CC1 (centres unmarked) [Compound 4, reference compound] | > 320 | > 32 | 7.8 | – | – | antiallergic activity (PCA), in words [1]: of little interest; activity with regard to bronchospasms induced by serotonin (antispasmodic), in words [2, 8]: considerbly less active; activity with regard to bronchospasms induced by histamine (antihistaminic), in words [3, 9]: considerbly less active |
| O=C(O)CN1CCN(C(c2ccccc2)c2ccccc2)CC1 [Compound 3, 2-[4-(diphenylmelthyl)-1-piperazinyl]-acetic acid, reference compound] | > 320 | > 32 | 5 | – | – | antiallergic activity (PCA), in words [1]: of little interest; activity with regard to bronchospasms induced by serotonin (antispasmodic), in words [2, 8]: considerbly less active; activity with regard to bronchospasms induced by histamine (antihistaminic), in words [3, 9]: considerbly less active |
| O=C([O-])COCCN1CCN(C(c2ccccc2)c2ccc(Cl)cc2)CC1.[K+] (centres unmarked) [H, potassium 2-[2-[4-[(4-chlorophenyl)phenylmethyl]-1-piperazinyl]ethoxy]-acetate] | – | – | – | 46.2 | – | ED50 [2]: 7 µmol/kg; ED50 [3]: 0.23 µmol/kg |
| Cl.Cl.O=C(O)COCCOCCN1CCN(C(c2ccccc2)c2ccc(Cl)cc2)CC1 (centres unmarked) [M, 2-[2-[2-[4-[(4-chlorophenyl)phenylmethyl]-1-piperazinyl]ethoxy]ethoxy]-acetic acid dihydrochloride] | – | 10 | 0.79 | 505 | 505 | – |
| OCCOCCN1CCN(C(c2ccccc2)c2ccc(Cl)cc2)CC1 (centres unmarked) [Hydroxyzine, 2-[2-[4-[(4-chlorophenyl)phenylmethyl]-1-piperazinyl]-ethoxy]-ethanol, reference compound] | – | – | – | – | – | Tranquilizing dose (first manifestations of tranquilization) ([5]; mouse, in vivo, ip): 27 mg/kg |
| Cl.Cl.NC(=O)COCCOCCN1CCN(C(c2ccccc2)c2ccccc2)CC1 [F, 2-[2-[2-[4-(Diphenylmethyl)-1-piperazinyl]ethoxy]ethoxy]-acetamide dihydrochloride] | 10.6 | 0.32 | 0.25 | 94 | 282 | – |
| O.O=C(O)COCCN1CCN(C(c2ccccc2)c2ccc(F)cc2)CC1 (centres unmarked) [N, 2-[2-[4-[(4-fluorophenyl)phenylmethyl]-1-piperazinyl]ethoxy]-acetic acid hydrate] | 10.2 | 2.1 | 0.08 | 372 | 372 | – |
| O=C(O)COCCN1CCN(C(c2ccccc2)c2ccc(Cl)cc2)CC1 (centres unmarked) [J, 2-[2-[4-[(4-chlorophenyl)phenylmethyl]-1-piperazinyl]ethoxy]-acetic acid] | – | – | – | 138 | – | ID 50, inhibition of bronchospasms induced by serotonin [2, 8]: 7.3 µmol/kg; antihistaminic activity retained ([3]; guinea pig, intravenous, 1 μmol/kg single dose, after 5 hours): 100%; ID 50, inhibition of bronchospasms induced by histamine [3, 9]: 0.20 µmol/kg |
| NC(=O)COCCN1CCN(C(c2ccccc2)c2ccccc2)CC1 [A, 2-[2-[4-(Diphenylmethyl)-1-piperazinyl]ethoxy]-acetamide] | – | 0.78 | 0.23 | – | 255 | – |
| NC(=O)COCCN1CCN(C(c2ccccc2)c2ccc(F)cc2)CC1 (centres unmarked) [C, 2-[2-[4-[(4-fluorophenyl)phenylmethyl]-1-piperazinyl]ethoxy]-acetamide] | 18.9 | 0.94 | 0.71 | 115 | 386 | – |
| Cl.Cl.O=C(O)COCCOCCN1CCN(C(c2ccccc2)c2ccccc2)CC1 [L, 2-[2-[2-[4-(diphenylmethyl)-1-piperazinyl]ethoxy]ethoxy]-acetic acid dihydrochloride] | – | 5.69 | 0.39 | 141 | 942 | – |
| Cn1c(=O)c2[nH]cnc2n(C)c1=O [Theophylline, reference compound] | – | – | – | – | – | ED50 [2]: 10 µmol/kg; ED50 [3]: 10 µmol/kg |
| O=C(O)COCCN1CCN(C(c2ccccc2)c2ccc(Cl)cc2)CC1 (centres unmarked) [I, 2-[2-[4-[(4-chlorophenyl)phenylmethyl]-1-piperazinyl]ethoxy]-acetic acid] | – | 9.44 | 0.205 | – | – | – |
| O=C(O)c1cc(=O)c2c(OCC(O)COc3cccc4oc(C(=O)O)cc(=O)c34)cccc2o1 [sodium cromoglycate] | – | – | – | – | – | ID 50 per os (reduction of 50% of the surface area of the colored spot) ([1]; 15 minutes before allergen): inactive; antiallergic activity (PCA), in words [1]: inactive; antiasthmatic activity [6]: well known for its antiasthmatic activity |
| O=C(O)COCCN1CCN(C(c2ccccc2)c2ccccc2)CC1 [K, 2-[2-[4-(diphenylmethyl)-1-piperazinyl]ethoxy]-acetic acid] | – | 9.5 | 0.093 | 106 | 708 | – |
| COc1ccc(C(c2ccccc2)N2CCN(CCOCC(N)=O)CC2)cc1.Cl.Cl (centres unmarked) [E, 2-[2-[4-[(4-methoxyphenyl)phenylmethyl]-1-piperazinyl]ethoxy]-acetamide dihydrochloride] | – | 10 | 0.67 | 136 | 456 | – |
| NC(=O)COCCN1CCN(C(c2ccccc2)c2ccc(Cl)cc2)CC1 (centres unmarked) [B, 2-[2-[4-[(4-chlorophenyl)phenylmethyl]-1-piperazinyl]ethoxy]-acetamide] | 36.5 | 0.88 | 0.45 | 38.7 | 232 | – |
| NC(=O)CN1CCN(C(c2ccccc2)c2ccc(Cl)cc2)CC1 (centres unmarked) [Compound 2, 2-[4-[(4-chlorophenyl)phenylmethyl]-1-piperazinyl]-acetamide, reference compound] | > 320 | 11 | 3.1 | – | – | antiallergic activity (PCA), in words [1]: of little interest; activity with regard to bronchospasms induced by serotonin (antispasmodic), in words [2, 8]: considerbly less active; activity with regard to bronchospasms induced by histamine (antihistaminic), in words [3, 9]: considerbly less active; activity as a hypocholesteremic agent [7]: not very encouraging |
| O=C1Nc2ccc(Cl)cc2C(c2ccccc2)=NC1O (centres unmarked) [Oxazepam, 7-chloro-1,3-dihydro-3-hydroxy-5-phenyl:2H-1,4-benzodiazepin-2-one, reference compound] | – | – | – | 2.6 | – | – |
